Results reported in the supplement of paper PMC13380429.

Assays:
Conditions in all cases: 72 h
U2OS [1] = assay: cell viability relative to DMSO; higher = less toxic
Vero E6 [2] = assay: as above
HepG2 [3] = assay: as above
Caco-2 [4] = assay: as above
Calu-3 [5] = assay: as above
U2OS [6] = assay: drug sensitivity score (DSS) for viability; higher = more toxic; extreme values may be limits of the assay
Vero E6 [7] = assay: as above
HepG2 [8] = assay: as above
Caco-2 [9] = assay: as above
Calu-3 [10] = assay: as above
U2OS [11] = assay: relative viability EC50 (midpoint between 100% and the lowest measured viability); higher = less toxic
Vero E6 [12] = assay: as above
HepG2 [13] = assay: as above
Caco-2 [14] = assay: as above
Calu-3 [15] = assay: as above

SMILES | cell viability (U2OS [1]; 1 nM) [%] | cell viability (U2OS [1]; 10 nM) [%] | cell viability (U2OS [1]; 100 nM) [%] | cell viability (U2OS [1]; 1000 nM) [%] | cell viability (U2OS [1]; 10000 nM) [%] | cell viability (Vero E6 [2]; 1 nM) [%] | cell viability (Vero E6 [2]; 10 nM) [%] | cell viability (Vero E6 [2]; 100 nM) [%] | cell viability (Vero E6 [2]; 1000 nM) [%] | cell viability (Vero E6 [2]; 10000 nM) [%] | cell viability (HepG2 [3]; 1 nM) [%] | cell viability (HepG2 [3]; 10 nM) [%] | cell viability (HepG2 [3]; 100 nM) [%] | cell viability (HepG2 [3]; 1000 nM) [%] | cell viability (HepG2 [3]; 10000 nM) [%] | cell viability (Caco-2 [4]; 1 nM) [%] | cell viability (Caco-2 [4]; 10 nM) [%] | cell viability (Caco-2 [4]; 100 nM) [%] | cell viability (Caco-2 [4]; 1000 nM) [%] | cell viability (Caco-2 [4]; 10000 nM) [%] | cell viability (Calu-3 [5]; 1 nM) [%] | cell viability (Calu-3 [5]; 10 nM) [%] | cell viability (Calu-3 [5]; 100 nM) [%] | cell viability (Calu-3 [5]; 1000 nM) [%] | cell viability (Calu-3 [5]; 10000 nM) [%] | drug sensitivity score (U2OS [6]) | drug sensitivity score (Vero E6 [7]) | drug sensitivity score (HepG2 [8]) | drug sensitivity score (Caco-2 [9]) | drug sensitivity score (Calu-3 [10]) | relative viability EC50 (U2OS [11]) [µM] | relative viability EC50 (Vero E6 [12]) [µM] | relative viability EC50 (HepG2 [13]) [µM] | relative viability EC50 (Caco-2 [14]) [µM] | relative viability EC50 (Calu-3 [15]) [µM]
COc1ccc2[nH]c3c(-c4cccc5ccccc45)nccc3c2c1 [SP-141] | 110 | 109 | 106 | 53.9 | 21.3 | 95.5 | 101 | 97.8 | 39.1 | 29.2 | 102 | 101 | 95.9 | 47.8 | 42.8 | 91.8 | 103 | 99.2 | 60 | 39.5 | 98.7 | 106 | 105 | 67.4 | 67.2 | 9.9 | 11.5 | 10.2 | 8.1 | 5.3 | 0.873 | 0.453 | 0.332 | 0.741 | 
O=C1CN2Cc3c(ccc(Cl)c3Cl)N=C2N1 [anagrelide] |  |  |  |  |  | 106 | 107 | 103 | 102 | 99.3 | 101 | 102 | 104 | 101 | 96.7 | 101 | 97.8 | 97.6 | 99.8 | 96.9 |  |  |  |  |  |  | 0 | 0 | 0 |  |  | > 10 | > 10 | > 10 | 
Cn1cnc([N+](=O)[O-])c1Sc1ncnc2[nH]cnc12 [azathioprine] | 104 | 97.9 | 96.2 | 71.9 | 78.9 | 94.2 | 96.6 | 94.8 | 96 | 82.7 | 95.2 | 89.7 | 93 | 75.1 | 20 | 110 | 86.8 | 93 | 92.7 | 92.9 | 94.8 | 93.6 | 93.1 | 94.4 | 98.7 | 5.2 | 0.7 | 7.7 | 0 | 0 |  | > 10 | 1.46 | > 10 | > 10
COc1cc2ncnc(Nc3ccc(F)c(Cl)c3)c2cc1NC(=O)/C=C/CN1CCCCC1 [dacomitinib] | 94.3 | 97.3 | 94.5 | 94.7 | 43.6 | 99.6 | 92.7 | 59.5 | 48.2 | 39.5 | 104 | 97.8 | 91.3 | 97 | 37.8 | 95.3 | 89.6 | 90.6 | 69.3 | 71.2 | 83.5 | 73.7 | 40.8 | 32.1 | 17 | 3.9 | 15.8 | 3.8 | 5.6 | 23.8 | 2.39 | 0.0579 | 2.79 |  | 0.027
CC1=C(CCC(=O)O)c2cc3[nH]c(cc4nc(cc5[nH]c(cc1n2)c(C)c5C(C)O)C(C)=C4C(C)O)c(C)c3CCC(=O)O (stereo unspecified) [hematoporphyrin] | 100 | 96.7 | 102 | 93.6 | 94.5 | 106 | 106 | 98.8 | 104 | 80.3 | 103 | 99.9 | 91.3 | 99.1 | 79.2 | 109 | 96.3 | 96.6 | 105 | 74.1 | 97.8 | 89 | 87.2 | 94.5 | 88.1 | 0 | 0.4 | 0.8 | 0.8 | 0.6 | > 10 | > 10 | > 10 |  | > 10
OCc1c[nH]c2ccccc12 [indole-3-carbinol] | 99.9 | 101 | 99.3 | 104 | 93.7 | 104 | 97.1 | 93.1 | 99.2 | 97.5 | 105 | 96 | 99.9 | 88.1 | 101 | 103 | 103 | 99 | 97.8 | 87.4 |  |  |  |  |  | 0 | 0 | 0 | 0.2 |  | > 10 | > 10 | > 10 | > 10 | 
C[C@H](N)[C@H](O)c1ccc(O)c(O)c1 [levonordefrin] |  |  |  |  |  | 109 | 109 | 103 | 108 | 91.9 | 105 | 105 | 97 | 96.8 | 93.9 | 97.8 | 89.7 | 96.8 | 88.6 | 93.8 | 102 | 96.8 | 98 | 104 | 100 |  | 0 | 0 | 0 | 0 |  | > 10 | > 10 | > 10 | > 10
C=CC(C)(O)CCC=C(C)C (stereo unspecified) [linalool] | 103 | 95.7 | 97.4 | 95 | 97.9 | 101 | 104 | 96.3 | 102 | 98.7 | 95.5 | 102 | 96.5 | 100 | 95.2 | 110 | 99.2 | 99.2 | 93.7 | 99.2 |  |  |  |  |  | 0 | 0 | 0 | 0 |  | > 10 | > 10 | > 10 | > 10 | 
CN(CCCN1c2ccccc2CCc2ccccc21)CC(=O)c1ccc(Cl)cc1 [lofepramine] |  |  |  |  |  | 99 | 102 | 97.2 | 101 | 101 | 105 | 105 | 102 | 96.9 | 106 | 103 | 107 | 101 | 94.9 | 92 |  |  |  |  |  |  | 0 | 0 | 0 |  |  | > 10 | > 10 | > 10 | 
Nc1ccc2cc3ccc(N)cc3nc2c1 [proflavine-hemisulfate] |  |  |  |  |  | 94.6 | 100 | 90.7 | 89.4 | 35.8 | 96.5 | 103 | 92.7 | 76.2 | 2 | 100 | 88.4 | 99 | 105 | 49.3 | 89.2 | 95.9 | 103 | 103 | 62.6 |  | 5.3 | 9.1 | 2.3 | 1.6 |  | 1.9 | 1.57 | 3.6 | 
CC(C)C[C@H](NC(=O)[C@@H]1CCCN1)C(=O)NCC(N)=O [prolylleucylglycinamide] |  |  |  |  |  | 102 | 105 | 102 | 103 | 98.2 | 109 | 107 | 107 | 99.2 | 107 | 95 | 95.1 | 98.1 | 96 | 96.6 | 97.1 | 96.3 | 99.4 | 106 | 104 |  | 0 | 0 | 0 | 0 |  | > 10 | > 10 | > 10 | > 10
CN1CCCN=C1/C=C/c1cccs1 [pyrantel-pamoate] | 99.6 | 96.9 | 99.1 | 95.3 | 101 | 107 | 99.9 | 96.4 | 101 | 99.4 | 97.4 | 106 | 103 | 104 | 92.6 | 93.3 | 94.8 | 98.8 | 96 | 100 |  |  |  |  |  | 0 | 0 | 0 | 0 |  | > 10 | > 10 | > 10 | > 10 | 
CCN(CC)CCNC(=O)c1cc(S(C)(=O)=O)ccc1OC [tiapride] |  |  |  |  |  | 99.9 | 100 | 103 | 99.5 | 104 | 102 | 103 | 94.2 | 103 | 97.5 | 104 | 93.5 | 95.9 | 100 | 101 | 97.5 | 89.2 | 101 | 106 | 100 |  | 0 | 0 | 0 | 0 |  | > 10 | > 10 | > 10 | > 10
C/C(=C\CNc1ncnc2[nH]cnc12)CO [zeatin] | 96.8 | 99.4 | 95.4 | 98.9 | 102 | 95.7 | 99.4 | 97 | 100 | 107 | 94.7 | 92.9 | 108 | 102 | 110 | 94.1 | 104 | 88.1 | 92.5 | 101 |  |  |  |  |  | 0 | 0 | 0 | 0 |  | > 10 | > 10 | > 10 | > 10 | 
